Test results from PMC9804781, “Identification of a Novel Pseudo‐Natural Product Type IV IDO1 Inhibitor Chemotype” (Angewandte Chemie (International Ed. in English), 2022).
Where two headings read alike, the source gives them in different places.

Key:
His-tagged IDO2 = target: T1, His-tagged IDO2 (Homo sapiens, UniProt Q6ZQW0); assay: IDO2 Activity Assay; format: biochemical; conditions: 90 min + 120 min at 30 °C
T1 construct: His; purchased BPS Bioscience 72035 (kit)
T1 sequence (Q6ZQW0 1-407): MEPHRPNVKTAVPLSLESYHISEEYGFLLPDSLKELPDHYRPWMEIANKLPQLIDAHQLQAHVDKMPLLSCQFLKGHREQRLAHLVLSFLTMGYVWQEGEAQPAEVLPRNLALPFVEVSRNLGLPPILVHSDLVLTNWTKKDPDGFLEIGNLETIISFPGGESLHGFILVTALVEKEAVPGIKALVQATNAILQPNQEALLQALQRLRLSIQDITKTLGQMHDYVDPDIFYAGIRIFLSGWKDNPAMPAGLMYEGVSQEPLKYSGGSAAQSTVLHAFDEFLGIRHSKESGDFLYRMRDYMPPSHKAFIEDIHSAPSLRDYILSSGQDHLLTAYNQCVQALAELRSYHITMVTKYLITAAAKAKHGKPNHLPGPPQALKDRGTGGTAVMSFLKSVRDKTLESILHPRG
Experimental: Inhibition of indoleamine 2,3-dioxygenase 2 (IDO2) was tested using the Universal IDO1/IDO2/TDO Inhibitor Screening Assay Kit (cat# 72035, BPS Bioscience, US). 10 µg His-tagged IDO2 in IDO2 Assay Buffer was incubated with Complete IDO2 Reaction Solution (1% (v/v) component 2 in component 1) and 50 µM Test Inhibitor (0.5% (v/v) DMSO) for 90 min at 30°C with slow shaking in the dark prior to initiation of the reaction by addition of 20% (v/v) IDO2 Substrate. Samples were incubated for 120 min at 30°C with slow shaking in the dark. Afterwards, absorbance at 321 nm was recorded on the Spark® Multimode Microplate Reader (Tecan, AT), all values were subtracted by the background and normalized to the DMSO control.

purified IDO1 = test system: purified IDO1; parameters: method as in ref 36b = [36]; 36; conditions: ref 36b; cited from earlier work
His-tagged TDO = target: T2, His-tagged TDO (Homo sapiens, UniProt P48775); assay: TDO Activity Assay; format: biochemical; conditions: 120 min at 37 °C
T2 construct: His; purchased BPS Bioscience 72035 (kit)
Experimental: Inhibition of tryptophan 2,3-dioxygenase (TDO) was tested using the Universal IDO1/IDO2/TDO Inhibitor Screening Assay Kit (cat# 72035, BPS Bioscience, US). 500 ng His-tagged TDO in TDO Assay Buffer was incubated with Reaction Solution and 50 µM Test Inhibitor (0.5% (v/v) DMSO) for 120 min at 37°C with slow shaking in the dark. Afterwards, absorbance at 321 nm was recorded on the Spark® Multimode Microplate Reader (Tecan, AT), all values were subtracted by the background and normalized to the DMSO control. […]
(v/v) component 2 in component 1) and 50 µM Test Inhibitor (0.5% (v/v) DMSO) for 90 min at 30°C with slow shaking in the dark prior to initiation of the reaction by addition of 20% (v/v) IDO2 Substrate. Samples were incubated for 120 min at 30°C with slow shaking in the dark. […]

glucose uptake = assay: Automated screen: glucose uptake; format: cell-based; conditions: automated screening assay
autophagy [1] = assay: Automated screen: autophagy inhibition in the presence of rapamycin; format: cell-based; conditions: automated screening assay
autophagy [2] = assay: Automated screen: autophagy induction under fed condition; format: cell-based; conditions: automated screening assay
[3] = test system: Kyn levels in BxPC-3 cells; assay: Automated (high-throughput) Kyn assay in BxPC-3 cells (Kyn sensor); format: cell-based
Experimental: Mammalian cell lines were maintained at 37°C and 5% CO2 in a humidified atmosphere and sub-cultivated twice a week. All cell lines were tested regularly for mycoplasma contamination and were always free of mycoplasma. BxPC-3 cells (DSMZ#760) were grown in RPMI-1640 medium supplemented with 10% FBS, 2 mM L-glutamine, 1 mM sodium pyruvate, 4.5 g/L glucose, 10 mM […]
HEPES and 1.5 g/L NaHCO3. […]
High-throughput Kyn assay
Automated screening for modulators of Kyn levels in BxPC-3 cells was performed as published earlier.[2] Briefly, BxPC-3 cells (1,000 cells/well) were seeded in black 1536-well plates prior to incubation for 24 h and subsequent treatment with compounds, 380 µM L-Trp and 50 ng/mL IFN-γ for 48 h. Afterwards, trichloroacetic acid was added to a final concentration of 7% (v/v), the plates were incubated for 10 min at 37°C and centrifuged for 10 min at 1620 x g. Kyn was detected by addition of 17.5 µM Kyn sensor[14] in assay buffer (excitation: 535 nm, emission: […]

BMP signaling = assay: Automated screen: BMP signaling; format: cell-based; conditions: automated screening assay
autophagy [4] = assay: Automated screen: autophagy induction in the presence of chloroquine; format: cell-based; conditions: automated screening assay
Kyn levels in HeLa cells = assay: Manual Kyn assay in HeLa cells (p-DMAB detection); format: cell-based; conditions: IFN-γ, L-Trp, compounds 48 h, p-DMAB, mean n=3 ±SD, read-out: Kyn Assay IC50
Experimental: Mammalian cell lines were maintained at 37°C and 5% CO2 in a humidified atmosphere and sub-cultivated twice a week. All cell lines were tested regularly for mycoplasma contamination and were always free of mycoplasma. BxPC-3 cells (DSMZ#760) were grown in RPMI-1640 medium supplemented with 10% FBS, 2 mM L-glutamine, 1 mM sodium pyruvate, 4.5 g/L glucose, 10 mM HEPES and 1.5 g/L NaHCO3. HeLa cells (DSMZ#57) were cultivated in DMEM supplemented with 10% FBS, 4.5 g/L glucose, 4 mM L-glutamine 1 mM sodium pyruvate, 1% non-essential amino acids, 3.7 g/L NaHCO3. SKOV-3 cells (ATCC#HTB-77) were maintained in modified McCoy’s 5A medium supplemented with 10% FBS, 1.5 mM L-glutamine and 2.2 g/L NaHCO3. […]
For manual testing, BxPC-3, HeLa or SKOV-3 cells (20,000 cells/well, 5,000 cells/well or 6,250 cells/well, respectively) were seeded in 96-well plates (BxPC-3 and HeLa) or 384-well plates (SKOV-3) in medium without phenol red. After 24 h, the IDO1 pathway was induced by addition of 50 ng/mL (BxPC-3 and HeLa) or 17.6 ng/mL IFN-γ (SKOV-3) and 380 µM (BxPC-3), 164.15 µM (HeLa) or 450 µM L-Trp (SKOV-3) with simultaneous treatment with the compounds at the indicated concentrations followed by incubation for 48 h. For the hemin competition assay, hemin was added together with IFN-γ, L-Trp and the compounds. Subsequently, trichloroacetic acid was added to a final concentration of 7% (v/v), the plates were incubated for 15 min at room […]
temperature and centrifuged for 10 min at 1800 x g. Afterwards, an equal volume of freshly prepared 2% (w/v) p-DMAB in glacial acetic acid (Ehrlich reagent) was added prior to measuring the absorbance at 492 nm and 650 nm on the Spark® Multimode Microplate Reader (Tecan, AT).
To determine the Kyn levels, the absorbance of the Kyn-p-DMAB adduct A492 was subtracted by the background absorbance A650 and normalized to the DMSO control. Data analysis was performed using a non-linear regression curve fit and GraphPad Prism 9.0 (GraphPad Software, Inc, US) to generate dose-response curves and obtain IC50 values. […]
Subsequently, 10 mM ascorbic acid, 10 μM methylene blue, 2 mM L-Trp and 100 μg/mL catalase were added and samples were incubated for 60 min at room temperature or 37°C. […]

Wnt signaling = assay: Automated screen: Wnt signaling; format: cell-based; conditions: automated screening assay
hedgehog signaling = assay: Automated screen: hedgehog signaling; format: cell-based; conditions: automated screening assay
alkaline phosphatase = assay: Automated screen: alkaline phosphatase; conditions: automated screening assay
HeLa cells = test system: HeLa cells; parameters: method as in ref 9a = [9]; 9; conditions: ref 9a; cited from earlier work

T2 sequence (P48775 whole entry): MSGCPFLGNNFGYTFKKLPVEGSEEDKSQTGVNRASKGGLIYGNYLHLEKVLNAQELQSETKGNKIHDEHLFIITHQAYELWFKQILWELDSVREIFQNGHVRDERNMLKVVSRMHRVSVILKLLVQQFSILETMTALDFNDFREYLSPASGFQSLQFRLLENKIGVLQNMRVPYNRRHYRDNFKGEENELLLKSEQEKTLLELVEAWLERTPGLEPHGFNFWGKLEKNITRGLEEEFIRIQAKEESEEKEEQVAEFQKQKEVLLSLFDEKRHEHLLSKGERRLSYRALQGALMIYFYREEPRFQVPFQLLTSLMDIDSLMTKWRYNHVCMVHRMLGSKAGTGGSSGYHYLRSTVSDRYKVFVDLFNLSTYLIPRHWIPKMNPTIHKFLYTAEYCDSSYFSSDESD

In the case of NS(=O)(=O)NCCNc1nonc1C(=NO)Nc1ccc(F)c(Br)c1 [epacadostat], the “reduction of IDO2 activity” value (His-tagged IDO2; 50 μM, n=3) is given as 49.9±0.3%, the IC50 (purified IDO1) is given as 0.073 µM and the “selectivity over IDO2” value (purified IDO1) is given as greater than 1000 fold. For the same compound, the “selectivity over TDO” value (purified IDO1) was greater than 1000 fold and the “reduction of TDO activity” value (His-tagged TDO; 50 μM, n=3) was 75.5±4.3%.
With CCOC(=O)C1=CC[C@](C(=O)OC)(c2cc3ccccc3n2C)N(S(=O)(=O)c2ccccc2[N+](=O)[O-])[C@@H]1C(=O)OC(C)(C)C [Compound 3b] the “glucose uptake, inhibition” value (glucose uptake) was 17%, the “autophagy inhibition in the presence of rapamycin, inhibition” value (autophagy [1]) was 10.50 ± 9.50% and the “autophagy induction under fed condition, IC50/EC50” value (autophagy [2]) was “inactive”. For the same compound, the “autophagy induction under fed condition, inhibition” value (autophagy [2]) was 0.33 ± 0.47%, the “effect on cellular kynurenine (Kyn) levels” value ([3]; BxPC-3 cells stimulated with IFN-γ) was “selectively decreased” and the “kynurenine levels, IC50/EC50” value ([3]; automated screening assay) was 0.63 ± 0.32 µM. The “kynurenine levels, inhibition” value ([3]; automated screening assay) was 94.0 ± 1%, the “BMP signaling, inhibition” value (BMP signaling) was 37% and the “autophagy induction in the presence of chloroquine, IC50/EC50” value (autophagy [4]) was “inactive”. For the same compound, the “autophagy induction in the presence of chloroquine, inhibition” value (autophagy [4]) was -3.67 ± 0.94%, the IC50 (Kyn levels in HeLa cells; listed as 3b^a) was 2.44 ± 0.56 µM and the IC50 (Kyn levels in HeLa cells; listed as 3b^b) was 0.66 ± 0.05 µM. The IC50 (Kyn levels in HeLa cells) was 0.49 ± 0.1 µM, the “Wnt signaling, inhibition” value (Wnt signaling) was 45.33 ± 1.89% and the “hedgehog signaling, IC50/EC50” value (hedgehog signaling) was 6.33 ± 0.69 µM. The “hedgehog signaling, inhibition” value (hedgehog signaling) was 73.0 ± 10.0% and the “alkaline phosphatase, IC50/EC50” value (alkaline phosphatase) was “inactive”.
For C[C@@H](C(=O)Nc1ccc(Cl)cc1)C1CCC(c2ccnc3ccc(F)cc23)CC1 (stereo partly shown) [BMS-986205], the IC50 (HeLa cells) is listed as 0.0042 µM, the “inhibition of IDO2 (result in words)” value (His-tagged IDO2; 50 µM) is listed as “did not inhibit” and the “inhibition of TDO (result in words)” value (His-tagged TDO; 50 µM) is listed as “did not inhibit”.
